In patent US10316077B2, “Cell-penetrating ATF5 polypeptides and uses thereof” (Sapience Therapeutics, Inc., priority 2017, dated 2019):
Values joined by “and” are separate entries in the source; they are usually repeats but may differ in a detail not shown here. Equal entries are not always repeated. Ends that are not written are not given here.

What was measured:
[1] = system: U87 cells; assay: Apo-ONE caspase 3/7 activation assay in U87 glioblastoma cells; format: cell-based
Protocol: Activation of caspase enzymes occurs in the early stages of apoptosis. In this Example, we investigated the effect on caspase activation of ST-3 in combination with the Bcl-2 inhibitor ABT-263 (Navitoclax). U87 cells were prepared as described in Example 2 for T98G cells. Lyophilized ST-3 was freshly reconstituted in Tris Buffer at a concentration of 5 mg/mL, and adjusted to a working concentration of 200 μM. ST-3 was added to cells in 100 μL Tris Buffer at a final concentration range of 0-20 μM. […] Plates were incubated at ambient temperature in the dark for 1.5-2 hours. Fluorescence was recorded by Eppendorf PlateReader AF2200 at Ex. 485 nm/Em. 527 nm.

[2] = system: T98G GBM cells
Protocol: (§3) T98G cells were set at a density of 2×10^3/well in 200 μL of RPMI+1.5% fetal bovine serum (FBS) in black-walled Nunc™ MicroWell™ 96-Well Optical-Bottom Plates with Polymer Base.
(§4) On day −1, adherent T98G cells were washed of complete media (RPMI+10% FBS) with 6 mL Dulbecco's Phosphate Buffered Saline (DPBS), and dissociated from T25 Nunclon™ Delta flask with 2 mL trypsin at room temperature. Trypsin was quenched with 6 mL complete media, and cells were resuspended in fresh complete media at a concentration of 1×10^6 cells/mL. Cells were then adjusted to a concentration of 1×10^4 cells/mL in RPMI+1.5% FBS, and 200 μL of culture was added to each well (B2 to G11) of a Nunc™ 96-well Flat Bottom Black Polystyrol Clear Bottom plate to a final cell concentration of 2×10^3 cells/well. Cells were set in an incubator at 37° C. and 5% CO2 with humidity for 24 hours.
(§5) On day 0, 100 μL of media was removed from each well.
(§6) On day 3, media was removed from wells, and wells were washed with 100 μL DPBS. Cells were resuspended in 100 μL RPMI+10% FBS. CellTiter-Blue® Cell Viability Assay (Promega Corp., Madison, Wis.) was performed by adding 20 μL of CellTiter-Blue® reagent to each well. Plates were returned to the incubator at 37° C. and 5% CO2 with humidity for 1.5-2 hours. CellTiter-Blue® assay results were read by Eppendorf PlateReader AF2200 at Ex. 535 nm/Em. 595 nm according to manufacturer's instructions. Data is presented as % Viability. Cell viability was calculated as (Sample value/Buffer control value)×100. EC50 values were calculated using GraphPad Prism v.7 XML.

[3] = system: HL60 promyelocytic leukemia (PML) cells; assay: Annexin V/PI cell viability assay in HL60 cells; format: cell-based, human; conditions: for EC50: HL60, Annexin V/PI viability, 48 hours, read-out: EC50 (μM) of ATF-5-Derived Polypeptides in Cancer Cells, HL60
Protocol: (§1) ST-3, reconstituted at a concentration of 10 mg/mL in 20 mM His, pH 7.5, was added to each well at a volume of 50 μL to a final concentration range of 0-80 μM. Cells were incubated with ST-3 for 48 hours at 37° C. Cell viability was quantified by flow cytometry using an Annexin V FITC apoptosis detection kit from Abcam. Briefly, cells were washed with PBS and resuspended in 1× assay buffer containing Annexin V FITC and propidium iodide (PI). Annexin V detects apoptotic cells, and PI stains dead cells. After staining, apoptotic cells show green fluorescence, dead cells show red and green fluorescence, and live cells show little or no fluorescence. Cells were selected for analysis based on forward scatter (FSC) vs. side scatter (SSC), and analyzed by BD Accuri C6 Plus flow cytometer to detect Annexin V-FITC binding (Ex=488 nm; Em=530 nm) using FITC signal detector and PI staining by the phycoerythrin emission signal detector. Percentage of Annexin V^low and PI^low were quantified and presented as % Viability.

[4] = system: U251 GBM cells; assay: Annexin V/PI cell viability assay in U251 cells; format: cell-based; conditions: 48-hour incubation, read-out: EC50 (μM) of ATF-5-Derived Polypeptides in Cancer Cells, U251
Protocol: as §1
(§2) Alternatively, adherent U251 or U87 cells were set at a density of 3.5×10^3 cells/well in 150 μL of media on day −1. On day 0, media was removed and replenished with 150 μL of fresh media, and cells were treated with ST-3 as described. […] Cell viability was determined as described above for suspension cells.

[5] = system: U87 cells; assay: Annexin V/PI cell viability assay in U87 cells; format: cell-based; conditions: 48-hour incubation, read-out: EC50 (μM) of ATF-5-Derived Polypeptides in Cancer Cells, U87
Protocol: as §1, §2

[6] = system: T98G GBM cells; assay: CellTiter-Blue cell viability assay in T98G cells; conditions: read-out: EC50 (μM) of ATF-5-Derived Polypeptides in Cancer Cells, T98G, 72 hours
Protocol: as §3, §4, §5, §6

[7] = system: neoplastic cells; conditions: systemically administered; cited from earlier work

CC1(C)CCC(c2ccc(Cl)cc2)=C(CN2CCN(c3ccc(C(=O)NS(=O)(=O)c4ccc(N[C@H](CCN5CCOCC5)CSc5ccccc5)c(S(=O)(=O)C(F)(F)F)c4)cc3)CC2)C1 [ABT-263, ABT-263 (Navitoclax)]
% Caspase Activation, ABT-263 alone ([1]; ST-3 0 μM, ABT-263 0.5 μM, % of positive control): 15.5% and 15.32%

CN[C@@H]1C[C@H]2O[C@@](C)([C@@H]1OC)n1c3ccccc3c3c4c(c5c6ccccc6n2c5c31)C(=O)NC4 [Positive Control, staurosporine]
% Caspase Activation, positive control ([1]; staurosporine 10 μM, reference set to 100): 100%

RQIKIWFQNRRMKWKKLEGECQGLEARNRELKERAESV [ST-3]
cytotoxic activity compared to ST-2 [2]: unexpectedly superior cytotoxic activity over ST-2 | EC50 [3]: 16 µM | EC50 [4]: 42 µM | EC50 [5]: 45 µM | EC50 [6]: 69 µM

RQIKIWFQNRRMKWKKLEQRAEELARENEELLEKEAEELEQENAELEGECQGLEARNRELRERAESV [ST-2]
blood-brain barrier crossing, cell entry and apoptosis of neoplastic cells [7]: can cross the blood-brain barrier, enter cells, and selectively trigger the apoptotic death of neoplastic cells | EC50 [3]: > 200 µM | EC50 [4]: > 200 µM | EC50 [5]: > 200 µM | EC50 [6]: > 200 µM

YGRKKRRQRRLEGECQGLEARNRELKERAESV [ATF5 Polypeptide with Tat CPP]
cytotoxic activity ([3]; HL-60 cell viability assay): has cytotoxic activity
